These results are taken from patent publication US10457710B2, “Antimicrobial peptides, their variants and uses” (priority 2015, dated 2019).

Where a SMILES comes first, the peptide text is derived from it. Where no end group is shown, it is not given here. [ ]: non-standard residue; d: D form.

The subject of one experiment is S. aureus RN4220. The class given is cell-based. As to conditions: antibiotic sensitive strain S. aureus RN4220. The protocol: Minimum inhibition concetrations (MICs) were determined against Escherichia coli (ATCC 25922), Staphylococcus aureus (ATCC 25923), Klebsiella pneumoniae (ATCC 10031) and Pseudomonas aeruginosa (ATCC 27853). Also clinical strains of E. coli, K. pneumoniae, E. cloacae, P. aeruginosa, Serratia marcescens, Proteus mirabilis, S. pneumoniae, Acinetobacter baumannii, A. johnsonii and S. aureus were used for MICs assays. Additionally, clinical strains of yeast including Candida albicans, C. glabrata, C. parapsilosis and C. quillermondiae were used. The susceptibility of these microorganisms to Chain peptides were determined using micro broth dilution assay. Colonies of the respective microorganism from Muller Hinton (MH) agar plates incubated overnight were suspended in MH broth media and final concentration of microorganism was adjusted to 5.0×10^5 cfu/ml. An aliquot of 10 μl of each Chain peptide, or gentamicin, tetracycline as reference antibiotics were added in differing concentrations along with 90 μl of bacterial suspension to 96 well polypropylene plates and incubated at 37° C. for 20 to 24 hours. Concentrations of Chain peptides and reference antibiotics ranged from 0.125 to 128 μg/ml and the MICs were recorded as the lowest concentration with no visual growth of bacteria. Similarly, antifungal MICs were tested in Potato dextrose broth.
(§1) Peptides Chain 104, Chain 105, Chain 201, Chain 308, Chain 310 were tested against antibiotic-sensitive strains of S. aureus RN4220 and methicillin resistant strains of S. aureus COL (MRSA). Chain peptides comprising of either L- or D-form amino acids were tested against these bacteria, and the D-form peptides were found have better activity compared to L-form (Table 6). Synergistic activity of chain peptides along with Ertapenem (4 μg/ml) was tested to know whether it will influence the activity against MRSA strains. […] Chain 310 has the best antibacterial activity against the MRSA strains with a MIC of 0.06 & 0.03 μg/ml along with Ertapenem (4 μg/ml) for both forms of L and D-peptides (Table 6).

The subject of the next experiment is MRSA strains. Put plainly: MIC, synergistic activity with Ertapenem (4 μg/ml). The class given is cell-based, S. aureus. As to conditions: S. aureus COL with 4 μg/ml Ertapenem (synergistic activity). The protocol: as §1
For the next experiment, the system named is C. quillermondiae. As to the kind of experiment: MIC, clinical yeast strains. Further details: Minimum inhibitory concentration: unit: μg/ml. As to conditions: C. quillermondiae clinical yeast strain 1. The class given is cell-based. A digest of the protocol: (§2)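 For A. johnsonii, Mueller Hinton broth; for the clinical yeasts, Potato dextrose broth. In both, 5.0×10^5 cfu/ml was exposed to peptide over 0.125–128 μg/ml for 20–24 h at 37 °C, and MIC was read as the lowest concentration showing no visual growth.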

In another experiment the test system is C. parapsilosis. As to the kind of experiment: MIC, clinical yeast strains. Format: cell-based. A digest of the protocol:
as §2

For the next experiment, the system named is C. glabrata. Put plainly: MIC, clinical yeast strains. The class given is cell-based. The essentials:
as §2

The next experiment relates to Candida albicans. Put plainly: MIC, clinical yeast strains. The class given is cell-based. A digest of the protocol:
as §2

Experiment [1] has as its system clinical strains of S. aureus. As to the kind of experiment: MIC, microdilution, clinical strains. Format: cell-based. As to conditions: 0.02% BSA, 0.2% acetic acid. The essentials: (§3)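 Overnight MH agar colonies were suspended in MH broth to 5.0×10^5 cfu/ml, mixed with serial peptide dilutions (0.125–128 μg/ml) and incubated at 37° C for 20 to 24 hours. Yeast MICs were run the same way in potato dextrose broth, and wells were scored visually.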
A general note: Broth dilution looks for growth in wells or tubes with falling amounts of substance.

Experiment [2] relates to clinical strains of P. aeruginosa. Put plainly: MIC, microdilution, clinical strains. Format: cell-based. As to conditions: 0.02% BSA, 0.2% acetic acid. A digest of the protocol:
as §3

The subject of experiment [3] is clinical strains of Proteus mirabilis. Put plainly: MIC, microdilution, clinical strains. Format: cell-based. As to conditions: 0.02% BSA, 0.2% acetic acid. A digest of the protocol:
as §3

For experiment [4], the system named is clinical strains of E. coli. As to the kind of experiment: MIC, microdilution, clinical strains. The class given is cell-based. As to conditions: microdilution, Muller Hinton broth-cation adjusted, 0.02% BSA, 0.2% acetic acid. The essentials:
as §3

The test system of experiment [5] is clinical strains of K. pneumoniae. Put plainly: MIC, microdilution, clinical strains. Format: cell-based. As to conditions: 0.02% BSA, 0.2% acetic acid. A digest of the protocol:
as §3

In experiment [6] the test system is clinical strains of Serratia marcescens. As to the kind of experiment: MIC, microdilution, clinical strains. Format: cell-based. As to conditions: 0.02% BSA, 0.2% acetic acid. A digest of the protocol: as §3
Experiment [7] deals with clinical strains of S. pneumoniae. Put plainly: MIC, microdilution, clinical strains. As to conditions: 0.02% BSA, 0.2% acetic acid. The class given is cell-based. A digest of the protocol:
as §3

Experiment [8] relates to clinical strains of E. cloacae. Put plainly: MIC, microdilution, clinical strains. The class given is cell-based. As to conditions: 0.02% BSA, 0.2% acetic acid. A digest of the protocol: as §3

Take RLKWFLLFRKR [Compound 308]: in the experiment with S. aureus RN4220, the “Minimum inhibitory concentration (MICs), S. aureus RN4220” value is more than 64 µg/mL. Further, in the experiment with MRSA strains, the “Minimum inhibitory concentration (MICs), S. aureus COL + 4 μg/ml Ertapenem” value stood at 0.5 µg/mL.
The matching figures for RKWRAMIRLHAKRLRK [Compound 104]: more than 64 µg/mL and 0.25 µg/mL.
For `CC(C)C[C@@H](NC(=O)[C@H](N)CCCNC(=N)N)C(=O)N[C@H](CCCCN)C(=O)N[C@H](Cc1c[nH]c2ccccc12)C(=O)N[C@H](Cc1ccccc1)C(=O)N[C@H](CC(C)C)C(=O)N[C@H](CC(C)C)C(=O)N[C@H](Cc1ccccc1)C(=O)N[C@H](CCCNC(=N)N)C(=O)N[C@H](CCCCN)C(=O)N[C@H](CCCNC(=N)N)C(=O)O` [308 D] (H-[dR][dL][dK][dW][dF][dL][dL][dF][dR][dK][dR]-OH) the same measures were 4 µg/mL and 1 µg/mL.
For KRKWRWLFKKL [Compound 310] the same measures were more than 64 µg/mL and 0.06 µg/mL.
For the compound `CC(C)C[C@@H](NC(=O)[C@H](N)CCCCN)C(=O)N[C@H](CCCCN)C(=O)N[C@H](Cc1c[nH]c2ccccc12)C(=O)N[C@H](Cc1ccccc1)C(=O)N[C@H](Cc1c[nH]c2ccccc12)C(=O)N[C@H](CC(C)C)C(=O)N[C@H](Cc1ccccc1)C(=O)N[C@H](CCCCN)C(=O)N[C@H](CCCCN)C(=O)N[C@H](CCCNC(=N)N)C(=O)O` [Chain311D] (H-[dK][dL][dK][dW][dF][dW][dL][dF][dK][dK][dR]-OH), the Minimum inhibitory concentration with C. quillermondiae is 4; with C. parapsilosis (C. parapsilosis clinical yeast strain 1), 16; with C. parapsilosis (C. parapsilosis clinical yeast strain 2) it was 8; with C. parapsilosis (C. parapsilosis clinical yeast strain 3), 8; in the experiment with C. parapsilosis (C. parapsilosis clinical yeast strain 4), 8; with C. glabrata (C. glabrata clinical yeast strain 1), 16. In addition, the Minimum inhibitory concentration with C. glabrata (C. glabrata clinical yeast strain 2) is given as 16; in the experiment with C. glabrata (C. glabrata clinical yeast strain 3) it was 8; in the experiment with C. glabrata (C. glabrata clinical yeast strain 4) it was 64; with Candida albicans (Candida albicans clinical yeast strain 1), 8; in the experiment with Candida albicans (Candida albicans clinical yeast strain 2) it was 8; in the experiment on Candida albicans (Candida albicans clinical yeast strain 3), 8. In addition, the Minimum inhibitory concentration in the experiment with Candida albicans (Candida albicans clinical yeast strain 4) was found to be 16; in the experiment on Candida albicans (Candida albicans clinical yeast strain 5) it was 16; in experiment [1] (Staphylococcus aureus strain 1, Muller Hinton broth-cation adjusted) it was 1; in experiment [1] (Staphylococcus aureus strain 2, Muller Hinton broth-cation adjusted) it was 1; in [1] (Staphylococcus aureus strain 3, Muller Hinton broth-cation adjusted), 1; in [1] (Staphylococcus aureus strain 4, Muller Hinton broth-cation adjusted), 1. In addition, the Minimum inhibitory concentration is on record as 1 in [1] (Staphylococcus aureus strain 5, Muller Hinton broth-cation adjusted); 16 in [2] (Pseudomonas aeruginosa strain 1, Muller Hinton broth-cation adjusted); 8 in [2] (Pseudomonas aeruginosa strain 2, Muller Hinton broth-cation adjusted); 16 in [2] (Pseudomonas aeruginosa strain 3, Muller Hinton broth-cation adjusted); 8 in [2] (Pseudomonas aeruginosa strain 4, Muller Hinton broth-cation adjusted); 4 in experiment [2] (Pseudomonas aeruginosa strain 5, Muller Hinton broth-cation adjusted). Also, the Minimum inhibitory concentration is on record as more than 128 in experiment [3] (Proteus mirabilis strain 1, Muller Hinton broth-cation adjusted); 128 in experiment [3] (Proteus mirabilis strain 2, Muller Hinton broth-cation adjusted); 128 in experiment [3] (Proteus mirabilis strain 3, Muller Hinton broth-cation adjusted); more than 128 in experiment [3] (Proteus mirabilis strain 4, Muller Hinton broth-cation adjusted); more than 128 in experiment [3] (Proteus mirabilis strain 5, Muller Hinton broth-cation adjusted); 2 in [4] (Escherichia coli strain 1). Moreover, the Minimum inhibitory concentration in [4] (Escherichia coli strain 2) amounted to 2; in experiment [4] (Escherichia coli strain 3), 1; in experiment [4] (Escherichia coli strain 4) it was 0.5; in [4] (Escherichia coli strain 5) it was 1; in [5] (Klebsiella pneumoniae strain 1, Muller Hinton broth-cation adjusted), 8; in experiment [5] (Klebsiella pneumoniae strain 2, Muller Hinton broth-cation adjusted) it was 8. In addition, the Minimum inhibitory concentration in [5] (Klebsiella pneumoniae strain 3, Muller Hinton broth-cation adjusted) is listed as 4; in [5] (Klebsiella pneumoniae strain 4, Muller Hinton broth-cation adjusted), 8; in [5] (Klebsiella pneumoniae strain 5, Muller Hinton broth-cation adjusted) it was 4; in [6] (Serratia marcescens strain 1, Muller Hinton broth-cation adjusted), more than 128; in [6] (Serratia marcescens strain 2, Muller Hinton broth-cation adjusted), more than 128; in [6] (Serratia marcescens strain 3, Muller Hinton broth-cation adjusted), more than 128. Besides, the Minimum inhibitory concentration in experiment [6] (Serratia marcescens strain 4, Muller Hinton broth-cation adjusted) is recorded as more than 128; in experiment [6] (Serratia marcescens strain 5, Muller Hinton broth-cation adjusted), more than 128; in [7] (Streptococcus pneumoniae strain 1, Muller Hinton broth-cation adjusted), 16; in [7] (Streptococcus pneumoniae strain 2, Muller Hinton broth-cation adjusted), 8; in experiment [7] (Streptococcus pneumoniae strain 3, Muller Hinton broth-cation adjusted), 16; in [7] (Streptococcus pneumoniae strain 4, Muller Hinton broth-cation adjusted) it was 4. Besides, the Minimum inhibitory concentration in experiment [7] (Streptococcus pneumoniae strain 5, Muller Hinton broth-cation adjusted) worked out at 8; in experiment [8] (Enterobacter cloacae strain 1, Muller Hinton broth-cation adjusted), 4; in experiment [8] (Enterobacter cloacae strain 2, Muller Hinton broth-cation adjusted) it was 4; in experiment [8] (Enterobacter cloacae strain 3, Muller Hinton broth-cation adjusted), 4; in experiment [8] (Enterobacter cloacae strain 4, Muller Hinton broth-cation adjusted), 4; in experiment [8] (Enterobacter cloacae strain 5, Muller Hinton broth-cation adjusted) it was 2.
